According to the supplement of paper PMC10307832:

Legend:
Assay in all cases: relative viability (nuclei count vs DMSO), 5 days (fraction); higher = more cells survive
MK-8033 + OSI-027 = compound: Cn1cc(-c2cnc3ccc4ccc(CS(=O)(=O)NCc5ccccn5)cc4c(=O)c3c2)cn1 [MK-8033] + COc1cccc2cc(-c3nc([C@H]4CC[C@H](C(=O)O)CC4)n4ncnc(N)c34)[nH]c12 [OSI-027] (partner 0.5 µM)
Summary of the method: (§1)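 Relative viability was taken as the ratio of nuclei in treated wells to nuclei in vehicle wells. Lung cancer cell lines in 1536-well plates received compounds by pin tool one day after seeding, either one drug alone or a fixed anchor-drug dose plus five library-drug doses (not always all listed) in √10 steps. Nuclei were counted on 4× images after 5 days of treatment, and values are medians of duplicate plates.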

RU-SKI 43 + Pemetrexed = compound: CC[C@@H](C)CNCC(=O)N1CCC2=C([C@@H]1COC3=CC=CC(=C3)C)C=CS2 [RU-SKI 43] + Nc1nc2[nH]cc(CCc3ccc(C(=O)N[C@@H](CCC(=O)O)C(=O)O)cc3)c2c(=O)[nH]1 [Pemetrexed] (partner 0.2 µM)
Summary of the method: as §1

RU-SKI 43 + Vorinostat = compound: CC[C@@H](C)CNCC(=O)N1CCC2=C([C@@H]1COC3=CC=CC(=C3)C)C=CS2 [RU-SKI 43] + O=C(CCCCCCC(=O)Nc1ccccc1)NO [Vorinostat] (partner 1 µM)
Summary of the method: as §1

Irinotecan + Dasatinib = compound: CCc1c2c(nc3ccc(OC(=O)N4CCC(N5CCCCC5)CC4)cc13)-c1cc3c(c(=O)n1C2)COC(=O)[C@]3(O)CC [Irinotecan] + Cc1nc(Nc2ncc(C(=O)Nc3c(C)cccc3Cl)s2)cc(N2CCN(CCO)CC2)n1 [Dasatinib] (partner 0.075 µM)
Summary of the method: as §1

## UMC-11
MK-8033 + OSI-027; first compound 0.02 µM
  relative viability: 0.483
MK-8033 + OSI-027; first compound 0.06325 µM
  relative viability: 0.447
MK-8033 + OSI-027; first compound 0.2 µM
  relative viability: 0.381
MK-8033 + OSI-027; first compound 2 µM
  relative viability: 0.457
RU-SKI 43 + Pemetrexed; first compound 0.1 µM
  relative viability: 0.871
RU-SKI 43 + Pemetrexed; first compound 0.3162 µM
  relative viability: 0.951
RU-SKI 43 + Pemetrexed; first compound 1 µM
  relative viability: 0.91
RU-SKI 43 + Pemetrexed; first compound 3.162 µM
  relative viability: 0.824
RU-SKI 43 + Pemetrexed; first compound 10 µM
  relative viability: 0.837
RU-SKI 43 + Vorinostat; first compound 0.1 µM
  relative viability: 0.386
RU-SKI 43 + Vorinostat; first compound 0.3162 µM
  relative viability: 0.328
RU-SKI 43 + Vorinostat; first compound 1 µM
  relative viability: 0.473
RU-SKI 43 + Vorinostat; first compound 3.162 µM
  relative viability: 0.407
RU-SKI 43 + Vorinostat; first compound 10 µM
  relative viability: 0.352
Irinotecan + Dasatinib; first compound 0.6325 µM
  relative viability: 0.422
Irinotecan + Dasatinib; first compound 2 µM
  relative viability: 0.372
Irinotecan + Dasatinib; first compound 6.325 µM
  relative viability: 0.232
Irinotecan + Dasatinib; first compound 20 µM
  relative viability: 0.104
